ChEMBL document CHEMBL1130416, “Synthesis and biological activities of (R)-5,6-dihydro-N,N-dimethyl-4H-imidazo[4,5,1-ij]quinolin-5-amine and its metabolites” (J Med Chem, 1997)

How the values were obtained:
Mus musculus [1] = experiment: Hypothermic effects in mice when administered subcutaneously.; type: functional; conditions: sc
[2] = biological target: T1, 5-hydroxytryptamine receptor 1A (Homo sapiens, UniProt P08908)
T1 sequence (P08908 whole entry): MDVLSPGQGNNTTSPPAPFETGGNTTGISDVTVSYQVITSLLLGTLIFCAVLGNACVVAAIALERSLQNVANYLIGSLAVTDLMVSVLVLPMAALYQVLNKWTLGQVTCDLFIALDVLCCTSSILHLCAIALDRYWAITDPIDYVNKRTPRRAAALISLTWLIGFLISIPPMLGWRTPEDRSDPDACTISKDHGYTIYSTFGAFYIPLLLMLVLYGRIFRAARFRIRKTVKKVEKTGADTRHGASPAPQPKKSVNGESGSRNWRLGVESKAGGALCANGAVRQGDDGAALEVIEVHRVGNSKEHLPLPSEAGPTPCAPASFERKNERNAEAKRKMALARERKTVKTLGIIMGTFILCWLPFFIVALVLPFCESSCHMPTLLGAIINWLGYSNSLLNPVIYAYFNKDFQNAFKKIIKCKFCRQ

D(2) dopamine receptor [3] = biological target: T2, D(2) dopamine receptor (Homo sapiens, UniProt P14416)
T2 sequence (P14416 whole entry): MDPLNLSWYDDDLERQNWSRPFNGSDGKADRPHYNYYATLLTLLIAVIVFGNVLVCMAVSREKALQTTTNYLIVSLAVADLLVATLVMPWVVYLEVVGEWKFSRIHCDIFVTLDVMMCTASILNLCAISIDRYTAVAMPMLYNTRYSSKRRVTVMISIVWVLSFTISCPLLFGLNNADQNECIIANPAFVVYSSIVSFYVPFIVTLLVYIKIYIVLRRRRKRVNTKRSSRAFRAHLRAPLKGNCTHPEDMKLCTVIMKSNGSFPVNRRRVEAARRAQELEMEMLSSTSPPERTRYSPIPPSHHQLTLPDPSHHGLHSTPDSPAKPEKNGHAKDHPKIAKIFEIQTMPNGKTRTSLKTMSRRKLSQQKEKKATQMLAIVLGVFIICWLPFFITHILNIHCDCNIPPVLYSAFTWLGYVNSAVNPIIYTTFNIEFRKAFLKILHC

D(3) dopamine receptor [4] = biological target: T3, D(3) dopamine receptor (Homo sapiens, UniProt P35462)
T3 sequence (P35462 whole entry): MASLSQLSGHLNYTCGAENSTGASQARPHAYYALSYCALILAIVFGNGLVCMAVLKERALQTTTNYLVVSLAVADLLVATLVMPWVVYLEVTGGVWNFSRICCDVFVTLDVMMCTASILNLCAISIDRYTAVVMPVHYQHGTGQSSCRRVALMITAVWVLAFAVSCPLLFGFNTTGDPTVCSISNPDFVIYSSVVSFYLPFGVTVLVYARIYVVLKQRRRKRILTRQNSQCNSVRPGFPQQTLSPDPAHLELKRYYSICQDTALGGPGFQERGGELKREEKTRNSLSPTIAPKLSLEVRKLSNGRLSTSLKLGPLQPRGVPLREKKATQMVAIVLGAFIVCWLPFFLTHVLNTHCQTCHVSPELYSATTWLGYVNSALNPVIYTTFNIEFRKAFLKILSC

[5] = biological target: T1, 5-hydroxytryptamine receptor 1A; remark: listed apart in the source
Description: Binding affinity towards Serotonin 5-hydroxytryptamine 1A receptor by displacement of [3H]-(+)-8-OH-DPAT.

Canis familiaris [6] = species on record: Canis familiaris; experiment: Metabolism of compound in dog S9 microsomes ('++++' indicates largest observed peak); type: ADME, Canis lupus familiaris
[7] = Metabolism of compound in monkey S9 microsomes ('+++'indicates 50-80% largest observed peak); type: ADME, Microsome; conditions: cercopithecidae
[8] = Metabolism of compound in human liver slices (male) ('++++' indicates largest observed peak); type: ADME, tissue-based
[9] = Metabolism of compound in human microsomes ('++++' indicates largest observed peak); type: ADME, Microsome
Mus musculus [10] = species on record: Mus musculus; experiment: Metabolism of compound in Mouse S9 microsomes ('++++'indicates largest observed peak); type: ADME
Rattus norvegicus [11] = species on record: Rattus norvegicus; experiment: Metabolism of compound in rat S9 microsomes ('++++' indicates largest observed peak); type: ADME
[12] = Metabolism of compound in rabbit S9 microsomes ('+''indicates <20% largest observed peak); type: ADME, Oryctolagus cuniculus, Microsome
[13] = Metabolism of compound in mini pig S9 microsomes ('++++' indicates largest observed peak); type: ADME, Sus scrofa, Microsome
D(2) dopamine receptor [14] = biological target: T2, D(2) dopamine receptor; remark: listed apart in the source
Description: Binding affinity towards Dopamine receptor D2 by displacement of [3H]U-86170.

D(3) dopamine receptor [15] = biological target: T3, D(3) dopamine receptor; remark: listed apart in the source
Description: Binding affinity towards Dopamine receptor D3 by displacement of [3H](+)-7-OH-DPAT.

Mus musculus [16] = experiment: Hypothermic effects in mice when administered orally.; type: functional; conditions: po
Rattus norvegicus [17] = species on record: Rattus norvegicus; experiment: The stability relative to the U-93385 compound.
Canis familiaris [18] = species on record: Canis familiaris; experiment: Metabolism of compound in dog S9 microsomes ('++''indicates 20-50% largest observed peak); type: ADME, Canis lupus familiaris
[19] = Metabolism of compound in monkey S9 microsomes ('++''indicates 20-50% largest observed peak); type: ADME, Microsome; conditions: cercopithecidae
[20] = Metabolism of compound in human liver slices (male) ('++''indicates 20-50% largest observed peak); type: ADME, tissue-based
[21] = Metabolism of compound in human microsomes ('+''indicates <20% largest observed peak); type: ADME, Microsome
Mus musculus [22] = species on record: Mus musculus; experiment: Metabolism of compound in mouse S9 microsomes ('+''indicates <20% largest observed peak); type: ADME
[23] = Metabolism of compound in mini pig S9 microsomes ('+''indicates <20% largest observed peak); type: ADME, Sus scrofa, Microsome
Rattus norvegicus [24] = species on record: Rattus norvegicus; experiment: Metabolism of compound in rat S9 microsomes ('+''indicates <20% largest observed peak); type: ADME
Canis familiaris [25] = species on record: Canis familiaris; experiment: Metabolism of compound in dog S9 microsomes; Trace; type: ADME, Canis lupus familiaris
[26] = Metabolism of compound in monkey S9 microsomes ('++++' indicates largest observed peak); type: ADME, Microsome; conditions: cercopithecidae
[27] = Metabolism of compound in human microsomes; Trace; type: ADME, Microsome
Mus musculus [28] = species on record: Mus musculus; experiment: Metabolism of compound in mouse S9 microsomes ('++++' indicates largest observed peak); type: ADME
[29] = Metabolism of compound in rabbit S9 microsomes ('++++' indicates largest observed peak); type: ADME, Oryctolagus cuniculus, Microsome
[30] = Metabolism of compound in monkey S9 microsomes ('+''indicates <20% largest observed peak); type: ADME, Microsome; conditions: cercopithecidae
[31] = Metabolism of compound in human liver slices (male) ('+''indicates <20% largest observed peak); type: ADME, tissue-based
Rattus norvegicus [32] = species on record: Rattus norvegicus; experiment: Metabolism of compound in rat S9 microsomes; Trace; type: ADME

Structure (SMILES)	ED50 (Mus musculus [1])	Ki [2]	Ki (D(2) dopamine receptor [3])	Ki (D(3) dopamine receptor [4])	Ki [5]	Metabolism [12]	Ki (D(2) dopamine receptor [14])	Ki (D(3) dopamine receptor [15])	ED50 (Mus musculus [16])	other results
CN(C)[C@H]1Cc2cccc3ncn(c23)C1	17.3 mg/kg	Not Active	Not Active	Not Active	–	–	–	–	–	–
CN[C@H]1Cc2cccc3nc(O)n(c23)C1	–	Not Active	Not Active	Not Active	–	–	–	–	–	–
CN(C)[C@@H]1Cc2cccc3ncn(c23)C1	0.073 mg/kg	–	–	–	> 3520 nM	Partially active	1280 nM	2950 nM	0.073 mg/kg	Metabolism (Canis familiaris [6]): Partially active; Metabolism [7]: Partially active; Metabolism [8]: Partially active; Metabolism [9]: Partially active; Metabolism (Mus musculus [10]): Partially active; Metabolism (Rattus norvegicus [11]): Partially active; Metabolism [13]: Partially active; Relative stability (Rattus norvegicus [17]): 1
CN[C@@H]1Cc2cccc3ncn(c23)C1	0.31 mg/kg	–	–	–	> 3260 nM	Partially active	355 nM	2460 nM	0.73 mg/kg	Metabolism (Canis familiaris [18]): Partially active; Metabolism [19]: Partially active; Metabolism [20]: Partially active; Metabolism [21]: Partially active; Metabolism (Mus musculus [22]): Partially active; Metabolism [23]: Partially active; Metabolism (Rattus norvegicus [24]): Partially active; Relative stability (Rattus norvegicus [17]): 0.86
CN(C)[C@H]1Cc2cccc3nc(O)n(c23)C1	17.3 mg/kg	Not Active	Not Active	Not Active	–	–	–	–	–	–
CN(C)[C@@H]1Cc2cccc3[nH]c(=O)n(c23)C1	0.41 mg/kg	–	–	–	–	–	12 nM	1930 nM	1.3 mg/kg	Metabolism (Canis familiaris [25]): Partially active; Metabolism [26]: Partially active; Metabolism [20]: Partially active; Metabolism [27]: Partially active; Metabolism (Mus musculus [28]): Partially active; Metabolism [23]: Partially active; Metabolism (Rattus norvegicus [24]): Partially active; Metabolism [29]: Partially active
CCCN[C@@H]1Cc2cccc3nc(O)n(c23)C1	0.01 mg/kg	–	–	–	–	–	–	36 nM	0.41 mg/kg	–
CC(C)C[C@H]1C(=O)N2CCC[C@H]2[C@]2(O)O[C@](NC(=O)[C@@H]3C=C4c5cccc6[nH]c(Br)c(c56)C[C@H]4N(C)C3)(C(C)C)C(=O)N12 [BROMOCRIPTINE]	–	–	–	–	24 nM	–	10 nM	87 nM	–	–
CCCN(CCC)CCc1cccc2c1CC(=O)N2 [ROPINIROLE]	–	–	–	–	1710 nM	–	7.2 nM	–	–	–
CN[C@@H]1Cc2cccc3[nH]c(=O)n(c23)C1 [SUMANIROLE]	0.73 mg/kg	–	–	–	73 nM	Partially active	–	2330 nM	0.41 mg/kg	Metabolism [30]: Partially active; Metabolism [31]: Partially active; Metabolism (Mus musculus [22]): Partially active; Metabolism (Rattus norvegicus [32]): Partially active
